Experimental data from patent US20080293771A1, “AZACYCLYLBENZAMIDE DERIVATIVES AS HISTAMINE-3 ANTAGONISTS” (Wyeth, priority 2007, published 2008).
Where a name gives a salt, the structure may show the parent alone.

melting point | SMILES
272 to 273 °C | CN(C(=O)c1ccc(-n2cccn2)cc1)C1CCN(C2CCC2)CC1 (as salt: hydrochloride) [Example 86, N-(1-cyclobutylpiperidin-4-yl)-N-methyl-4-(1H-pyrazol-1-yl)benzamide]
240 °C (dec.) | CN(C(=O)c1ccc(-n2cccn2)cc1)C1CCN(C2CCCC2)CC1 (as salt: hydrochloride) [Example 87, N-(1-cyclopentylpiperidin-4-yl)-N-methyl-4-(1H-pyrazol-1-yl)benzamide]
213 to 215 °C | CC(C)N1CCC(N(C)C(=O)c2ccc(Cn3cccn3)cc2)CC1 (as salt: hydrochloride) [Example 91, N-methyl-N-[1-(1-methylethyl)piperidin-4-yl]-4-(1H-pyrazol-1-ylmethyl)benzamide]
235 to 237 °C | CN(C(=O)c1ccc(Cn2cccn2)cc1)C1CCN(C2CCC2)CC1 (as salt: hydrochloride) [Example 92, N-(1-cyclobutylpiperidin-4-yl)-N-methyl-4-(1H-pyrazol-1-ylmethyl)benzamide]
250 °C (dec.) | CN(C(=O)c1ccc(Cn2cccn2)cc1)C1CCN(C2CCCC2)CC1 (as salt: hydrochloride) [Example 93, N-(1-cyclopentylpiperidin-4-yl)-N-methyl-4-(1H-pyrazol-1-ylmethyl)benzamide]
175 to 177 °C | Cc1nc2ccccc2n1-c1ccc(C(=O)N(C)[C@@H]2CCN(C(C)C)C2)cc1F (as salt: hydrochloride) [Example 103, 3-fluoro-N-methyl-4-(2-methyl-1H-benzimidazol-1-yl)-N-[(3R)-1-(1-methylethyl)pyrrolidin-3-yl]benzamide]
164 to 166 °C | Cc1nc2ccccc2n1-c1ccc(C(=O)N(C)[C@@H]2CCN(C3CCC3)C2)cc1F (as salt: hydrochloride) [Example 104, N-[(3R)-1-cyclobutylpyrrolidin-3-yl]-3-fluoro-N-methyl-4-(2-methyl-1H-benzimidazol-1-yl)benzamide]
204 to 205 °C | Cc1nc2ccccc2n1-c1ccc(C(=O)N(C)[C@@H]2CCN(C(C)C)C2)c(Cl)c1 (as salt: hydrochloride) [Example 105, 2-chloro-N-methyl-4-(2-methyl-1H-benzimidazol-1-yl)-N-[(3R)-1-(1-methylethyl)pyrrolidin-3-yl]benzamide]
207 to 209 °C | Cc1nc2ccccc2n1-c1ccc(C(=O)N(C)[C@@H]2CCN(C3CCC3)C2)c(Cl)c1 (as salt: hydrochloride) [Example 106, 2-chloro-N-[(3R)-1-cyclobutylpyrrolidin-3-yl]-N-methyl-4-(2-methyl-1H-benzimidazol-1-yl)benzamide]
183 to 185 °C | Cc1cc(C(=O)N(C)[C@@H]2CCN(C(C)C)C2)ccc1-n1c(C)nc2ccccc21 (as salt: hydrochloride) [Example 107, N,3-dimethyl-4-(2-methyl-1H-benzimidazol-1-yl)-N-[(3R)-1-(1-methylethyl)pyrrolidin-3-yl]benzamide]
164 to 166 °C | Cc1cc(C(=O)N(C)[C@@H]2CCN(C3CCC3)C2)ccc1-n1c(C)nc2ccccc21 (as salt: hydrochloride) [Example 108, N-[(3R)-1-cyclobutylpyrrolidin-3-yl]-N,3-dimethyl-4-(2-methyl-1H-benzimidazol-1-yl)benzamide]
168 to 170 °C | COc1cc(C(=O)N(C)[C@@H]2CCN(C(C)C)C2)ccc1-n1c(C)nc2ccccc21 (as salt: hydrochloride) [Example 109, 3-methoxy-N-methyl-4-(2-methyl-1H-benzimidazol-1-yl)-N-[(3R)-1-(1-methylethyl)pyrrolidin-3-yl]benzamide]
168 to 170 °C | COc1cc(C(=O)N(C)[C@@H]2CCN(C3CCC3)C2)ccc1-n1c(C)nc2ccccc21 (as salt: hydrochloride) [Example 110, N-[(3R)-1-cyclobutylpyrrolidin-3-yl]-3-methoxy-N-methyl-4-(2-methyl-1H-benzimidazol-1-yl)benzamide]
193 to 195 °C | COc1cc(-n2c(C)nc3ccccc32)ccc1C(=O)N(C)[C@@H]1CCN(C(C)C)C1 (as salt: hydrochloride) [Example 111, (R)—N-(1-isopropylpyrrolidin-3-yl)-2-methoxy-N-methyl-4-(2-methyl-1H-benzo[d]imidazol-1-yl)benzamide]
202 to 204 °C | COc1cc(-n2c(C)nc3ccccc32)ccc1C(=O)N(C)[C@@H]1CCN(C2CCC2)C1 (as salt: hydrochloride) [Example 112, (R)—N-(1-cyclobutylpyrrolidin-3-yl)-2-methoxy-N-methyl-4-(2-methyl-1H-benzo[d]imidazol-1-yl)benzamide]
279 to 281 °C | Cc1nc2ccccc2n1-c1ccc(C(=O)N(C)C2CCN(C(C)C)CC2)cc1F (as salt: hydrochloride) [Example 119, 3-fluoro-N-methyl-4-(2-methyl-1H-benzimidazol-1-yl)-N-[1-(1-methylethyl)piperidin-4-yl]benzamide]

melting point | SMILES
250 °C (dec.) | Cc1nc2ccccc2n1-c1ccc(C(=O)N(C)C2CCN(C3CCCC3)CC2)cc1F (as salt: hydrochloride) [Example 120, N-(1-cyclopentylpiperidin-4-yl)-3-fluoro-N-methyl-4-(2-methyl-1H-benzimidazol-1-yl)benzamide]
250 °C (dec.) | Cc1nc2ccccc2n1-c1ccc(C(=O)N(C)C2CCN(C(C)C)CC2)c(Cl)c1 (as salt: hydrochloride) [Example 121, 2-chloro-N-methyl-4-(2-methyl-1H-benzimidazol-1-yl)-N-[1-(1-methylethyl)piperidin-4-yl]benzamide]
240 °C (dec.) | Cc1nc2ccccc2n1-c1ccc(C(=O)N(C)C2CCN(C3CCCC3)CC2)c(Cl)c1 (as salt: hydrochloride) [Example 122, 2-chloro-N-(1-cyclopentylpiperidin-4-yl)-N-methyl-4-(2-methyl-1H-benzimidazol-1-yl)benzamide]
250 °C (dec.) | Cc1cc(C(=O)N(C)C2CCN(C(C)C)CC2)ccc1-n1c(C)nc2ccccc21 (as salt: hydrochloride) [Example 123, N,3-dimethyl-4-(2-methyl-1H-benzimidazol-1-yl)-N-[1-(1-methylethyl)piperidin-4-yl]benzamide]
240 °C (dec.) | Cc1cc(C(=O)N(C)C2CCN(C3CCCC3)CC2)ccc1-n1c(C)nc2ccccc21 (as salt: hydrochloride) [Example 124, N-(1-cyclopentylpiperidin-4-yl)-N,3-dimethyl-4-(2-methyl-1H-benzimidazol-1-yl)benzamide]
250 to 252 °C | COc1cc(C(=O)N(C)C2CCN(C(C)C)CC2)ccc1-n1c(C)nc2ccccc21 (as salt: hydrochloride) [Example 125, 3-methoxy-N-methyl-4-(2-methyl-1H-benzimidazol-1-yl)-N-[1-(1-methylethyl)piperidin-4-yl]benzamide]
244 to 246 °C | COc1cc(C(=O)N(C)C2CCN(C3CCCC3)CC2)ccc1-n1c(C)nc2ccccc21 (as salt: hydrochloride) [Example 126, N-(1-cyclopentylpiperidin-4-yl)-3-methoxy-N-methyl-4-(2-methyl-1H-benzimidazol-1-yl)benzamide]
215 to 217 °C | COc1cc(-n2c(C)nc3ccccc32)ccc1C(=O)N(C)C1CCN(C(C)C)CC1 (as salt: hydrochloride) [Example 127, N-(1-isopropylpiperidin-4-yl)-2-methoxy-N-methyl-4-(2-methyl-1H-benzo[d]imidazol-1-yl)benzamide]
210 to 212 °C | COc1cc(-n2c(C)nc3ccccc32)ccc1C(=O)N(C)C1CCN(C2CCCC2)CC1 (as salt: hydrochloride) [Example 128, N-(1-cyclopentylpiperidin-4-yl)-2-methoxy-N-methyl-4-(2-methyl-1H-benzo[d]imidazol-1-yl)benzamide]
194 to 196 °C | Cc1nc2ccccc2n1-c1ccc(C(=O)N[C@@H]2CCN(C3CCCCC3)C2)cc1 (as salt: hydrochloride) [Example 137, N-[(3R)-1-cyclohexylpyrrolidin-3-yl]-4-(2-methyl-1H-benzimidazol-1-yl)benzamide]
174 to 176 °C | CCN(C(=O)c1ccc(-n2c(C)nc3ccccc32)cc1)[C@@H]1CCNC1 (as salt: hydrochloride) [Example 138, (R)—N-ethyl-4-(2-methyl-1H-benzo[d]imidazol-1-yl)-N-(pyrrolidin-3-yl)benzamide hydrochloride]
177 to 179 °C | CCN(C(=O)c1ccc(-n2c(C)nc3ccccc32)cc1)[C@@H]1CCN(C2CCCCC2)C1 (as salt: hydrochloride) [Example 142, N-[(3R)-1-cyclohexylpyrrolidin-3-yl]-N-ethyl-4-(2-methyl-1H-benzimidazol-1-yl)benzamide]
192 to 194 °C | Cc1nc2ccccc2n1Cc1ccc(C(=O)N(C)[C@@H]2CCN(C(C)C)C2)c2ccccc12 (as salt: hydrochloride) [Example 143a, (R)—N-(1-isopropylpyrrolidin-3-yl)-N-methyl-4-((2-methyl-1H-benzo[d]imidazol-1-yl)methyl)-1-naphthamide]
157 to 159 °C | Cc1nc2ccccc2n1Cc1ccc(C(=O)N(C)[C@@H]2CCN(C3CCC3)C2)c2ccccc12 (as salt: hydrochloride) [Example 143b, (R)—N-(1-cyclobutylpyrrolidin-3-yl)-N-methyl-4-((2-methyl-1H-benzo[d]imidazol-1-yl)methyl)-1-naphthamide]
228 to 230 °C | Cc1nc2ccccc2n1Cc1ccc(C(=O)N(C)C2CCN(C3CCCC3)CC2)c2ccccc12 (as salt: hydrochloride) [Example 144a, N-(1-cyclopentylpiperidin-4-yl)-N-methyl-4-((2-methyl-1H-benzo[d]imidazol-1-yl)methyl)-1-naphthamide]
153 to 155 °C | Cc1nc2ccccc2n1Cc1ccc(C(=O)N(C)C2CCN(C(C)C)CC2)c2ccccc12 (as salt: hydrochloride) [Example 144b, N-(1-isopropylpiperidin-4-yl)-N-methyl-4-((2-methyl-1H-benzo[d]imidazol-1-yl)methyl)-1-naphthamide]
